Measurements: paper PMC5875417 (ACS chemical neuroscience, 2015)
“And” between values parts separate entries of the source, which are not always exact repeats. Equal values may be shown once. Read-outs that look alike come from different tables or passages of the source.

Target: human dopamine transporter (hDAT) (Homo sapiens, UniProt Q01959)
Assay: cell-based
Assay type: cell-based
Conditions: for Relative persistent current (Ip relative to Io) after washout: as a function of concentration, Ip current remaining after washout before block with cocaine; for Depolarizing current: data not shown
[1] = Hill fit of dose-response normalized to 10 μM DA, −60 mV
[2] = ability to generate a persistent current at 10 μM and −60 mV

Chain of human dopamine transporter (hDAT) (Q01959 whole entry): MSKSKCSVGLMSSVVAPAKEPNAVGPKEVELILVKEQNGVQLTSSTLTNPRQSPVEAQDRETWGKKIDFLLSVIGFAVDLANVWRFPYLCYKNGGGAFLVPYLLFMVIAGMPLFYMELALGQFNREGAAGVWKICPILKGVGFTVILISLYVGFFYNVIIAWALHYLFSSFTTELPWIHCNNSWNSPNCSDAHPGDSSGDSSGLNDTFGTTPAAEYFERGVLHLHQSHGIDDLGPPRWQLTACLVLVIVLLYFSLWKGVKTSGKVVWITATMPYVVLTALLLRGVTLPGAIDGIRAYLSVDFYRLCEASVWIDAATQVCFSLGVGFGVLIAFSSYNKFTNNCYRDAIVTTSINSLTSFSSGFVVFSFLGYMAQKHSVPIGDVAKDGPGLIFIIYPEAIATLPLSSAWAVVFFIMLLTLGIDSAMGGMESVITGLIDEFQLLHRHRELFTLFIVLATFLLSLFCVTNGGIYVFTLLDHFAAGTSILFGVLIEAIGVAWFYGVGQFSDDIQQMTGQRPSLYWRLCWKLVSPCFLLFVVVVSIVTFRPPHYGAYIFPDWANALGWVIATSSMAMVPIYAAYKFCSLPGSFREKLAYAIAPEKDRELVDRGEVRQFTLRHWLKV

Cl.NCCc1ccc(O)cc1 [3-des-OH DA (3), 2-(4-Hydroxyphenyl)-1-aminoethane hydrochloride]
Hill coefficients: 0.91 ±0.08 | Persistent Current: no pronounced persistent current and No | EC50 (EC50): 1450 nM and 1430 nM

NCCc1cccc(O)c1 [4-des-OH DA (4), 2-(3-Hydroxyphenyl)-1-aminoethane]
Hill coefficients [1]: 1.07 ±0.09 | Persistent Current [2]: No | Persistent Current (ability to generate a persistent current at 10 μM and −60 mV, listed as 4-des-OH DA): no pronounced persistent current

COC(=O)[C@H]1[C@@H](OC(=O)c2ccccc2)C[C@@H]2CC[C@H]1N2C [Cocaine, reference compound]
Block of induced currents through hDAT: blocks the DA- and R(−)AMPH-induced initial currents

NCCc1ccc(O)c(O)c1 [DA (2), dopamine, reference compound]
Hill coefficients: 1.32 ±0.07 | Persistent Current: No | Rank order of efficacy: S(+)AMPH > DA > R(−)AMPH

C[C@@H](N)Cc1ccc(O)cc1.Cl [R(−) α-Me 3-des-OH DA (R6), R(–)-1-(4-Hydroxyphenyl)-2-aminopropane hydrochloride]
Hill coefficients [1]: 0.98 ± 0.08 | Persistent Current [2]: No | Relative persistent current (Ip relative to Io) after washout (−60 mV): much lower persistent current than S(+)AMPH (S1)

Br.C[C@@H](N)Cc1ccc(O)c(O)c1 [R(−) α-Me DA (R7), R(−)-1-(3,4-Dihydroxyphenyl)-2-aminopropane hydrobromide]
Hill coefficients [1]: 0.55 ± 0.06 | Persistent Current [2]: No

COC(=O)[C@H]1C(c2ccc(I)cc2)C[C@@H]2CC[C@H]1N2C (stereo partly shown) [RTI-55, reference compound]
Block of S(+)AMPH-induced initial peak current and persistent current (10 μM RTI-55, −60 mV): blocked

C[C@H](N)Cc1ccc(O)cc1.Cl [S(+) α-Me 3-des-OH DA (S6), S(+)-1-(4-Hydroxyphenyl)-2-aminopropane hydrochloride]
Recovery time constant T50 upon removal of compound, compared to DA (10 μM, −60 mV, normalized to 10 μM DA in same cell): no significant differences | Hill coefficients [1]: 0.49 ± 0.05 | Persistent Current [2]: No | Relative persistent current (Ip relative to Io) after washout (−60 mV): much lower persistent current than S(+)AMPH (S1)

Br.C[C@H](N)Cc1ccc(O)c(O)c1 [S(+) α-Me DA (S7), S(+)-1-(3,4-Dihydroxyphenyl)-2-aminopropane hydrobromide]
Hill coefficients [1]: 0.71 ± 0.11 | Persistent Current [2]: No

COc1ccc(CCN)cc1 [compound 8, 2-(4-Methoxyphenyl)-1-aminoethane]
Depolarizing current (10 μM): comparatively small depolarizing currents

COc1cccc(CCN)c1 [compound 9, 2-(3-methoxyphenyl)-1-aminoethane]
Depolarizing current (10 μM): comparatively small depolarizing currents

NCCc1ccccc1 [β-PEA (5), 2-phenyl-1-aminoethane, reference compound]
Persistent Current (100 μM, −60 mV): pronounced persistent current | Hill coefficients [1]: 1.06 ± 0.16 | Persistent Current [2]: Yes | Relative persistent current (Ip relative to Io) after washout (−60 mV): much lower persistent current than S(+)AMPH (S1)
